The values below come from US8158625B2, “Bicyclic indole-pyrimidine PI3K inhibitor compounds selective for P110 delta, and methods of use” (Genentech, Inc., priority 2009, dated 2012).

Molecules are shown by their SMILES.

The target in one assay is T1, p110 delta (Homo sapiens, UniProt O00329).
T1 construct: purchased Upstate Group, Millipore; Dundee, UK
As to the kind of experiment: PI3K isoform inhibition assay (fluorescence polarization), p110 delta. The assay is classed as biochemical. As to conditions: p110 delta binding IC50, Example 901. How it is done:
(§1) PI3K enzymatic activity was assayed by measuring the amount of product phosphatidylinositol 3,4,5-phosphate (PIP3) formed from substrate 4,5 phosphatidylinositol 4,5-phosphate (PIP2) using a fluorescence polarization displacement assay. The decrease in fluorescence polarization of a fluorescent PIP3 probe is measured as it is displaced from a PIP3-binding protein GRP-1 detector by PI3K-catalyzed product. Assays were conducted in 384-well black Proxiplates in the presence of 10 mM Tris (pH 7.5), 50 mM NaCl, 4 mM MgCl2, 5% glycerol, 25 μM ATP, 10 μM PIP2 (Echelon Biosciences), 0.05% 3-[(3-cholamidopropyl)dimethylammonio]-1-propanesulfonate, 1 mM dithiothreitol, and 2% DMSO. The kinase reactions were initiated by the addition of 40 ng/mL p110α/p85α, 300 ng/mL p110β/p85α, 40 ng/mL p110γ, or 40 ng/mL p110δ/p85α (Upstate Group, Millipore; Dundee, UK), and 10 μM PIP2 (Echelon Biosciences) to the wells. The reactions were stopped at timepoints that yielded a fixed change in fluorescence polarization consistent with initial rate conditions (typically 30 minutes), by the addition of 12.5 mM EDTA, 100 nM GRP-1 detector, and 5 nM tetramethylrhodamine-labeled PIP3 (TAMRA-PIP3; Echelon Biosciences). After 60 minutes of incubation at room temperature to allow equilibration of labeled and unlabeled PIP3 binding, the parallel and perpendicular components of the fluorescence emissions from each sample were measured at an excitation wavelength of 530 nm and an emission wavelength of 590 nm using an Envision fluorescent plate reader with a rhodamine filter (PerkinElmer Life and Analytical Sciences; Wellesley, Mass.). The assay is capable of detecting 0.1-2.0 μM PIP3 product. The IC50 values were obtained by fitting the dose-dependent inhibition data to a 4-parameter equation using Assay Explorer software (MDL, San Ramon, Calif.). […]
Recombinant PI3K p110 isoforms alpha, beta, and delta may be prepared and purified according to US 2008/0275067 from recombinant PI3K heterodimeric complexes consisting of a p110 catalytic subunit and a p85 regulatory subunit overexpressed using the BAC-TO-BAC® HT baculovirus expression system (GIBCO/BRL), and then purified for use in biochemical assays. The four Class I PI 3-kinases are cloned into baculovirus vectors as follows:
p110 delta: A FLAG™-tagged (Eastman Kodak Co., U.S. Pat. No. 4,703,004; U.S. Pat. No. 4,782,137; U.S. Pat. No. 4,851,341) version of human p110.delta (Chantry et al., J. Biol. Chem. (1997) 272:19236-41) is subcloned using standard recombinant DNA techniques into the BamH1-Xba1 site of the insect cell expression vector pFastbac HTb (Life Technologies, Gaithersburg, Md.), such that the clone is in frame with the His tag of the vector.

Another assay concerns the target T2, p110 alpha (Homo sapiens, UniProt P42336).
T2 construct: purchased Upstate Group, Millipore; Dundee, UK
In words: PI3K isoform inhibition assay (fluorescence polarization), p110 alpha, used for delta/alpha selectivity. As to conditions: ratio of biochemical IC50 values. How it is done: as §1
The same protocol was used to establish IC50 values for p110α (alpha) PI3K binding. […]

Assay [1] relates to production of CD69 by B lymphocytes in human whole blood activated with goat F(ab')2 anti-human IgM. As to the kind of experiment: CD69 Whole Blood Assay. The assay is classed as cell-based. The settings on record: Lymphocyte, anti-IgM stimulated, CD69 positive of CD20 positive cells, 20 hours. The source says: There is good evidence that B-cells play a key role in the pathogenesis of autoimmune and/or inflammatory disease. Protein-based therapeutics that deplete B cells such as Rituxan are effective against autoantibody-driven inflammatory diseases such as rheumatoid arthritis (Rastetter et al. (2004) Annu Rev Med 55:477). CD69 is the early activation marker in leukocytes including T cells, thymocytes, B cells, NK cells, neutrophils, and eosinophils. The CD69 human whole blood assay (Example 903) determines the ability of compounds to inhibit the production of CD69 by B lymphocytes in human whole blood activated by crosslinking surface IgM with goat F(ab′)2 anti-human IgM.
Human blood is obtained from healthy volunteers, with the following restrictions: 1 week drug-free, non-smokers. Blood (approximately 20 mls to test 8 compounds) is collected by venipuncture into Vacutainer tubes with sodium heparin.
Solutions of Formula I compounds at 1000 or 2000 μM in PBS (20×), are diluted by three-fold serial dilutions in 10% DMSO in PBS for a nine point dose-response curve. An aliquot of 5.5 μl of each compound is added in duplicate to a 2 ml 96-well plate; 5.5 μl of 10% DMSO in PBS is added as control and no-stimulus wells. Human whole blood-HWB (100 μl) is added to each well. After mixing the plates are incubated at 37° C., 5% CO2, 100% humidity for 30 minutes. Goat F(ab′)2 anti-human IgM (10 μl of a 500 μg/ml solution, 50 μg/ml final) is added to each well (except the no-stimulus wells) with mixing and the plates are incubated for an additional 20 hours. At the end of the 20 hour incubation, samples are incubated with florescent labeled antibodies for 30 minutes, at 37° C., 5% CO2, 100% humidity. Include induced control, unstained and single stains for compensation adjustments and initial voltage settings. Samples are then lysed with Pharmingen Lyse according to the manufacturer's instructions. Samples are then transferred to a 96 well plate suitable to be run on the AMS 96 well system on the BD Calibur FACs machine. Data acquired and Mean Fluorescence Intensity values were obtained using Cell Quest Software. Results are initially analyzed by FACS analysis software (Flow Jo). […] The IC50 values are calculated by ActivityBase using Xlfit version 3, equation 201.

T2 sequence (P42336 whole entry): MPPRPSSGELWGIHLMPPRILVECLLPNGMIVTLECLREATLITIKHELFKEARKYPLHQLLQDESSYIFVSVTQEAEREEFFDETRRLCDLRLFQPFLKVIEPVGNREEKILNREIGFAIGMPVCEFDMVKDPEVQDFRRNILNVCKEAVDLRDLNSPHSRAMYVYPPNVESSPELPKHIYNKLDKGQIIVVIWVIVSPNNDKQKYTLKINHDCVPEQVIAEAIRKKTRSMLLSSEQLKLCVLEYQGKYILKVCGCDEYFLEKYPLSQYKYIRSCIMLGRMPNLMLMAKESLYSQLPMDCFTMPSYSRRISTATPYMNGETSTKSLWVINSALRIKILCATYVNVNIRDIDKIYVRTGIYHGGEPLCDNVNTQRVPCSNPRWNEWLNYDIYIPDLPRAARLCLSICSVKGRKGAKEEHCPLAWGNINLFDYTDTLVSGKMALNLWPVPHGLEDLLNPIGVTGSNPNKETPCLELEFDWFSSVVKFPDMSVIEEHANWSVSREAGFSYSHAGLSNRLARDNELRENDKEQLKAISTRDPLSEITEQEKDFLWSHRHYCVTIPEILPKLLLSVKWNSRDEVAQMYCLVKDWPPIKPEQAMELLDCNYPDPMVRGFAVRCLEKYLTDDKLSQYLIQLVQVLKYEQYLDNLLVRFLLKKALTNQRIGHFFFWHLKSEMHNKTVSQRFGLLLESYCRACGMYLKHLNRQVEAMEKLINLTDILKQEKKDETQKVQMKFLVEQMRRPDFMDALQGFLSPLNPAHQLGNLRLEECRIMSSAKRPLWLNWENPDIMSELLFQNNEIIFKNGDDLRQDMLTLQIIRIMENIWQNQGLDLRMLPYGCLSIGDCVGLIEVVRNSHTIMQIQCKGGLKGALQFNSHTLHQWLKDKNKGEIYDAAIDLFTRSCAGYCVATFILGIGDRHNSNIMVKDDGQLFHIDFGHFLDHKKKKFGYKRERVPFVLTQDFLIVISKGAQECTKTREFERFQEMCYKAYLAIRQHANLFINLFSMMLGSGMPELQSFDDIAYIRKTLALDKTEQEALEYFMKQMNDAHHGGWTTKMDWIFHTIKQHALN
T2 sequence (P27986 whole entry partner): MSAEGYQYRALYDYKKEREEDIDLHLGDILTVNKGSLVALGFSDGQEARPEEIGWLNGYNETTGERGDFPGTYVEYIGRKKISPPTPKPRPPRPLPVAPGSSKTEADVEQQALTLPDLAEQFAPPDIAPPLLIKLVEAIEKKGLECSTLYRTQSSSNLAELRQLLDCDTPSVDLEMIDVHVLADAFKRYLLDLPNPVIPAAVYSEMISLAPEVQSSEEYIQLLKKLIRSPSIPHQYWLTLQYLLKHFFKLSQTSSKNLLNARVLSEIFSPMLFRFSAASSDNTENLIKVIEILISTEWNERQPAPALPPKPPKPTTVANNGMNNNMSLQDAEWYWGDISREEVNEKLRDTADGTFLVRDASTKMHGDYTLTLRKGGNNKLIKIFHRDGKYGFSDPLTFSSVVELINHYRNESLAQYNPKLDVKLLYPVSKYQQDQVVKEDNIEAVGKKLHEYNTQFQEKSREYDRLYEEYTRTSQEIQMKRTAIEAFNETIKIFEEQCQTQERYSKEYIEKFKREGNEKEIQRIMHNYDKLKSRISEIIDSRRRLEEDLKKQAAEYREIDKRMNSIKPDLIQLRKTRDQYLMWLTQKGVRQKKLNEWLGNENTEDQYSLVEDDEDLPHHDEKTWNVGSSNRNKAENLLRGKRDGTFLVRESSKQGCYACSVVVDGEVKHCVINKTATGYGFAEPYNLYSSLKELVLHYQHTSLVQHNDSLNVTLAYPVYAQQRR
T1 sequence (O00329 whole entry): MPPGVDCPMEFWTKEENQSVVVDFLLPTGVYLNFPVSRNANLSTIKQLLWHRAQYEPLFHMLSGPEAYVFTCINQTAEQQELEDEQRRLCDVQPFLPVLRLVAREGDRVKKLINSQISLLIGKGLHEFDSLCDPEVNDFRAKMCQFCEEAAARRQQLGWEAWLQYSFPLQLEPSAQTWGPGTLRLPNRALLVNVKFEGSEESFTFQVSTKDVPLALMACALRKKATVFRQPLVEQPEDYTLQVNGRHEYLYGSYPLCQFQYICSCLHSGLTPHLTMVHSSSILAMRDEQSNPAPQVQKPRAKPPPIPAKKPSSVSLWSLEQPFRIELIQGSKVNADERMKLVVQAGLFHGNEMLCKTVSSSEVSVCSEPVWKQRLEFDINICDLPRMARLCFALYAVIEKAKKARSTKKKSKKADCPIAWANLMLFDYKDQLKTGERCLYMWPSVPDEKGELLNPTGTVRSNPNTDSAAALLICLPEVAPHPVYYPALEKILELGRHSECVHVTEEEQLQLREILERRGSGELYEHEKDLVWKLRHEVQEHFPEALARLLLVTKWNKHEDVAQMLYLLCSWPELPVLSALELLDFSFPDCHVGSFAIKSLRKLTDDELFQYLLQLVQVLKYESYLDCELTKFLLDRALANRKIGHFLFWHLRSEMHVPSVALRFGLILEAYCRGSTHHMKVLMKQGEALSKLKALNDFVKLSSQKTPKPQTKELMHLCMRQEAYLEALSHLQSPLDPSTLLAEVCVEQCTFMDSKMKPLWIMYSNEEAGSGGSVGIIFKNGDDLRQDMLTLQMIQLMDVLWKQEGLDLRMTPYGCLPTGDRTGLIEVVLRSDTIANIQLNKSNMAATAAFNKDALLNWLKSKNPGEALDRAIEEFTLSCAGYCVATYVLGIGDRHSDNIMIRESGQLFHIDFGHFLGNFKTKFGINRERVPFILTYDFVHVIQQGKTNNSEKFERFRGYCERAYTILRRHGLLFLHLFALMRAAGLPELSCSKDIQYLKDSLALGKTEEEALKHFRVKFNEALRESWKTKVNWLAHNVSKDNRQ
T1 sequence (P27986 whole entry partner): as the sequence (P27986 whole entry partner) above

On to `CN(C)[C@@H]1CCN(Cc2nc3c(N4CCOCC4)nc(-c4c[nH]c5ccccc45)nc3n2C)C[C@@H]1F` [Compound 122, (3S,4R)-1-((2-(1H-indol-3-yl)-9-methyl-6-morpholino-9H-purin-8-yl)methyl)-3-fluoro-N,N-dimethylpiperidin-4-amine], for which the IC50 stood at 7.5 nM at p110 delta and 188 nM in assay [1]. Also, the “IC50 p110 alpha/IC50 p110 delta” value at p110 alpha is on record as 96.
On to `Cn1c(CN2CCC(C(C)(C)O)CC2)nc2c(N3CCOCC3)nc(-n3c(C#N)cc4ccccc43)nc21` [Compound 136, 1-(8-((4-(2-hydroxypropan-2-yl)piperidin-1-yl)methyl)-9-methyl-6-morpholino-9H-purin-2-yl)-1H-indole-2-carbonitrile], for which the IC50 at p110 delta came to 20 nM; in assay [1], 4600 nM. Besides, the “IC50 p110 alpha/IC50 p110 delta” value on p110 alpha is 265.
As to `c1ccc2c(-c3nc(N4CCOCC4)c4nc(CN5CC(N6CCOCC6)C5)sc4n3)c[nH]c2c1` [Compound 117, 4-(5-(1H-indol-3-yl)-2-((3-morpholinoazetidin-1-yl)methyl)thiazolo[5,4-d]pyrimidin-7-yl)morpholine], the IC50 on p110 delta was found to be 2 nM; in assay [1], 84 nM. The “IC50 p110 alpha/IC50 p110 delta” value on p110 alpha is on record as 198.
In the case of `CN(C)C1CCN(Cc2cc3nc(-n4ccc5cc(O)ccc54)nc(N4CCOCC4)c3s2)CC1` [Compound 132, 1-(6-((4-(dimethylamino)piperidin-1-yl)methyl)-4-morpholinothieno[3,2-d]pyrimidin-2-yl)-1H-indol-5-ol], the IC50 at p110 delta is 22 nM. In addition, on p110 alpha, the “IC50 p110 alpha/IC50 p110 delta” value stood at 37.
The compound `CC(C)(OCCN1CCCC1)c1cc2nc(-c3c[nH]c4ccccc34)nc(N3CCOCC3)c2s1` [Compound 125] returned an IC50 at p110 delta of 8.4 nM. Also, the “IC50 p110 alpha/IC50 p110 delta” value on p110 alpha amounted to 63.
For the compound `COCc1cc2ccccc2n1-c1nc(N2CCOCC2)c2nc(CN3CCC(C(C)(C)O)CC3)n(C)c2n1` [Compound 127, 2-(1-((2-(2-(methoxymethyl)-1H-indol-1-yl)-9-methyl-6-morpholino-9H-purin-8-yl)methyl)piperidin-4-yl)propan-2-ol], the IC50 was 29 nM at p110 delta and 891 nM in assay [1]. At p110 alpha, the “IC50 p110 alpha/IC50 p110 delta” value was determined as 186.
Compound `CN(C)C1CCN(Cc2cc3nc(-n4ccc5ccccc54)nc(N4CCOCC4)c3s2)CC1` [Compound 103, 1-((2-(1H-indol-1-yl)-4-morpholinothieno[3,2-d]pyrimidin-6-yl)methyl)-N,N-dimethylpiperidin-4-amine] came in with an IC50 at p110 delta of 10.4 nM. Besides, the “IC50 p110 alpha/IC50 p110 delta” value on p110 alpha was found to be 54.
Turning to `CN(C)C1CCN(Cc2cc3nc(N4CCc5ccccc54)nc(N4CCOCC4)c3s2)CC1` [Compound 102, 1-((2-(indolin-1-yl)-4-morpholinothieno[3,2-d]pyrimidin-6-yl)methyl)-N,N-dimethylpiperidin-4-amine], the IC50 at p110 delta came out at 20.8 nM; in assay [1] it was 1700 nM. Besides, the “IC50 p110 alpha/IC50 p110 delta” value on p110 alpha is given as 34.
On to `CN(C)C1CCN(Cc2cc3nc(-c4c[nH]c5ccccc45)nc(N4CCOCC4)c3s2)CC1` [Compound 101, 1-((2-(1H-indol-3-yl)-4-morpholinothieno[3,2-d]pyrimidin-6-yl)methyl)-N,N-dimethylpiperidin-4-amine], for which the “IC50 p110 alpha/IC50 p110 delta” value at p110 alpha was found to be 101. In assay [1], this compound displayed an IC50 of 17.3 nM.
Regarding `O=C1COC2(CCN(Cc3cc4nc(-c5c[nH]c6ccccc56)nc(N5CCOCC5)c4s3)CC2)CN1` [Compound 116, 9-((2-(1H-indol-3-yl)-4-morpholinothieno[3,2-d]pyrimidin-6-yl)methyl)-1-oxa-4,9-diazaspiro[5.5]undecan-3-one], the IC50 at p110 delta was 55 nM. Moreover, the “IC50 p110 alpha/IC50 p110 delta” value on p110 alpha was 25.
Turning to `Cn1c(CN2CCC(N3CCOCC3)CC2)nc2c(N3CCOCC3)nc(-c3c[nH]c4ccccc34)nc21` [Compound 104, 4-(1-((2-(1H-indol-3-yl)-9-methyl-6-morpholino-9H-purin-8-yl)methyl)piperidin-4-yl)morpholine], the IC50 at p110 delta came to 47.7 nM; in assay [1], 623 nM. Further, the “IC50 p110 alpha/IC50 p110 delta” value at p110 alpha was 105.
In turn, `CC(C)(C(N)=O)N1CCN(Cc2cc3nc(-c4c(C#N)[nH]c5ccccc45)nc(N4CCOCC4)c3s2)CC1` [Compound 129, 2-(4-((2-(2-cyano-1H-indol-3-yl)-4-morpholinothieno[3,2-d]pyrimidin-6-yl)methyl)piperazin-1-yl)-2-methylpropanamide] yielded an IC50 on p110 delta of 3.4 nM. Also, the “IC50 p110 alpha/IC50 p110 delta” value at p110 alpha is 238.
With `Cc1cc2cc(F)ccc2n1-c1nc(N2CCOCC2)c2sc(CN3CCC(N(C)C)CC3)cc2n1` [Compound 119, 1-((2-(5-fluoro-2-methyl-1H-indol-1-yl)-4-morpholinothieno[3,2-d]pyrimidin-6-yl)methyl)-N,N-dimethylpiperidin-4-amine], the IC50 on p110 delta is 23.6 nM; in assay [1], 950 nM. Moreover, on p110 alpha, the “IC50 p110 alpha/IC50 p110 delta” value came out at 68.
Take `CN(C)C1CCN(Cc2cc3nc(-c4c[nH]c5ccc(F)cc45)nc(N4CCOCC4)c3s2)CC1` [Compound 113, 1-((2-(5-fluoro-1H-indol-3-yl)-4-morpholinothieno[3,2-d]pyrimidin-6-yl)methyl)-N,N-dimethylpiperidin-4-amine]: the 50% inhibitory concentration (IC50) at p110 delta is 102 nM. Moreover, on p110 alpha, the “IC50 p110 alpha/IC50 p110 delta” value is reported as 13.
For `Cn1c(CN2CCC(C(C)(C)O)CC2)nc2c(N3CCOCC3)nc(-c3c[nH]c4cc(F)ccc34)nc21` [Compound 124, 2-(1-((2-(6-fluoro-1H-indol-3-yl)-9-methyl-6-morpholino-9H-purin-8-yl)methyl)piperidin-4-yl)propan-2-ol], in that order: 616 nM and over 160.
